# How the values were obtained:
# [1] = Microsomal stability, rat; type: in vitro ADME; conditions: rat liver microsomes, 3 μM compound, 37° C.
# Experimental: (§1) A 10 mM stock solution of compound in DMSO was diluted 1000 fold in a 182 mM phosphate buffer pH 7.4 in a 96 deep well plate (Greiner, Cat no. 780285) and pre-incubated at 37° C.
# (§2) 40 μL of deionised water was added to a well of a polypropylene Matrix 2D barcode labelled storage tube (Thermo Scientific) and pre-incubated at 37° C.
# (§3) A Glucose-6-phosphate-dehydrogenase (G6PDH) working stock solution was prepared in 182 mM phosphate buffer pH7.4 and placed on ice before use. A co-factor containing MgCl2, glucose-6-phosphate and NADP+ was prepared in deionised water and placed on ice before use.
# (§4) A final working solution containing liver microsomes (Xenotech) of a species of interest (human, mouse, rat, dog), previously described G6PDH and co-factors was prepared and this mix was incubated for no longer than 20 minutes at room temperature.
# (§5) 30 μL of the pre-heated compound dilution was added to 40 μL of pre-heated water in the Matrix tubes and 30 μL of the microsomal mix was added. Final reaction concentrations were 3 μM compound, 1 mg microsomes, 0.4 U/mL GDPDH, 3.3 mM MgCl2, 3.3 mM glucose-6-phosphate and 1.3 mM NADP+.
# (§6) To measure percentage remaining of compound at time zero MeOH or ACN was added (1:1) to the well before adding the microsomal mix. The plates were sealed with Matrix Sepra Seals™ (Matrix, Cat. No. 4464) and shaken for a few seconds ensure complete mixing of all components.
# (§7) The samples which were not stopped are incubated at 37° C., 300 rpm and after 1 hour of incubation the reaction was stopped with MeOH or ACN (1:1).
# (§8) After stopping the reaction the samples were mixed and placed on ice for 30 min to precipitate the proteins. The plates were then centrifuged 30 min at 1200 rcf at 4° C. and the supernatant was transferred to a 96 v-bottom PP plate (Greiner, 651201) for analysis on LCMS.
# (§9) These plates were sealed with sealing mats (MA96RD-04S) of www.kinesis.co.uk and samples were measured at room temperature on LCMS (ZQ 1525 from Waters) under optimized conditions using Quanoptimize to determine the appropriate mass of the parent molecule.
# (§10) The samples were analyzed on LCMS with a flow rate of 1 mL/min. Solvent A was 15 mM ammonia and solvent B was methanol or acetonitrile, depending on the stop solution used. The samples were run under positive ion spray on an XBridge C18 […] (2.1×30 mm) column, from Waters.
# (§11) Peak area from the parent compound at time 0 was considered to be 100% remaining. The percentage remaining after 1 hour incubation was calculated from time 0 and was calculated as the percentage remaining. The solubility of the compound in the final test concentration in buffer is inspected by microscope and results are reported.
# (§12) The data on microsomal stability are expressed as a percentage of the total amount of compound remaining after 60 minutes.
# [2] = Microsomal stability, human; type: in vitro ADME; conditions: human liver microsomes, 3 μM compound, 37° C.
# Experimental: as §1, §2, §3, §4, §5, §6, §7, §8, §9, §10, §11, §12
# [3] = target: T1, Recombinant human JAK2 catalytic domain (Homo sapiens, UniProt O60674); test: JAK2 inhibition assay; type: biochemical; conditions: semi-quantitative score
# T1 construct: Recombinant human JAK2 catalytic domain (amino acids 808-1132; catalog number PV4210); purchased Invitrogen PV4210
# T1 sequence (O60674 808-1132): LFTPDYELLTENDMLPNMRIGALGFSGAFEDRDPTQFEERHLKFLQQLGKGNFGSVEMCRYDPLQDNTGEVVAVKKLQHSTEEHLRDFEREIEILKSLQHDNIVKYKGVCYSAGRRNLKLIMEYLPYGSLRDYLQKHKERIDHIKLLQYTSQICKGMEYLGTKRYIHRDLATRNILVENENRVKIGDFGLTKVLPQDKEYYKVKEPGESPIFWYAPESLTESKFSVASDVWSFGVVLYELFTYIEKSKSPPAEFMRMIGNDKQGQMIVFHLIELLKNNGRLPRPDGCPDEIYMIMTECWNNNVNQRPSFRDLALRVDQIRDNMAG
# Experimental: Recombinant human JAK2 catalytic domain (amino acids 808-1132; catalog number PV4210) was purchased from Invitrogen. 0.025 mU of JAK2 was incubated with 2.5 μg polyGT substrate (Sigma catalog number P0275) in kinase reaction buffer (5 mM MOPS pH 7.5, 9 mM MgAc, 0.3 mM EDTA, 0.06% Brij and 0.6 mM DTT, 1 μM non-radioactive ATP, 0.25 μCi 33P-gamma-ATP (GE Healthcare, catalog number AH9968) final concentrations) with or without 5 μL containing test compound or vehicle (DMSO, 1% final concentration), in a total volume of 25 μL, in a polypropylene 96-well plate (Greiner, V-bottom). After 90 min at 30° C., reactions were stopped by adding of 25 μL/well of 150 mM phosphoric acid. All of the terminated kinase reaction was transferred to prewashed (75 mM phosphoric acid) 96 well filter plates (Perkin Elmer catalog number 6005177) using a cell harvester (Perkin Elmer). Plates were washed 6 times with 300 μL per well of a 75 mM phosphoric acid solution and the bottom of the plates was sealed. 40 μL/well of Microscint-20 was added, the top of the plates was sealed and readout was performed using the Topcount (Perkin Elmer). Kinase activity was calculated by subtracting counts per minute (cpm) obtained in the presence of a positive control inhibitor (10 μM staurosporine) from cpm obtained in the presence of vehicle. The ability of a test compound to inhibit this activity was determined as: Percentage inhibition=((cpm determined for sample with test compound present−cpm determined for sample with positive control inhibitor) divided by (cpm determined in the presence of vehicle−cpm determined for sample with positive control inhibitor))*100%.
# Dose dilution series were prepared for the compounds enabling the testing of dose-response effects in the JAK2 assay and the calculation of the IC50 for each compound. Each compound was routinely tested at concentration of 20 μM followed by a 1/3 serial dilution, 8 points (20 μM-6.67 μM-2.22 μM-740 nM-247 nM-82 nM-27 nM-9 nM) in a final concentration of 1% DMSO.
SMILES,"Microsomal stability Rat (%), compound remaining after 60 minutes [1] [%]","Microsomal stability Human (%), compound remaining after 60 minutes [2] [%]",IC50 [3] [nM]
"O=C(Nc1nc2cccc(-c3ccc(OCc4ccccc4)nc3)n2n1)C1CC1 [Compound 57, Cyclopropanecarboxylic acid [5-(6-benzyloxy-pyridin-3-yl)-[1,2,4]triazolo[1,5-a]pyridin-2-yl]-amide]",34.5,42.75,1 to 100
"O=C(Nc1nc2cccc(-c3ccc(NCc4ccccc4)cc3)n2n1)C1CC1 [Compound 72, N-(5-(4-(benzylamino)phenyl)-[1,2,4]triazolo[1,5-a]pyridin-2-yl)cyclopropanecarboxamide]",2.2,4.88,1 to 100
"O=C(Nc1nc2cccc(-c3ccc(OCc4ccccn4)cc3)n2n1)C1CC1 [Compound 37, N-(5-(4-(pyridin-2-ylmethoxy)phenyl)-[1,2,4]triazolo[1,5-a]pyridin-2-yl)cyclopropanecarboxamide]",79.47,70.98,1 to 100
"N#Cc1ccc(COc2ccc(-c3cccc4nc(NC(=O)C5CC5)nn34)cc2)cn1 [Compound 176, N-(5-(4-((6-cyanopyridin-3-yl)methoxy)phenyl)-[1,2,4]triazolo[1,5-a]pyridin-2-yl)cyclopropanecarboxamide]",90.21,157.1,1 to 100
"O=C(Nc1nc2cccc(-c3ccc(OCc4ccc(C(F)(F)F)nc4)cc3)n2n1)C1CC1 [Compound 78, N-(5-(4-((6-(trifluoromethyl)pyridin-3-yl)methoxy)phenyl)-[1,2,4]triazolo[1,5-a]pyridin-2-yl)cyclopropanecarboxamide]",93.85,78.21,1 to 100

# The remaining lines, values ahead:
"Microsomal stability Rat (%), compound remaining after 60 minutes [1] [%]","Microsomal stability Human (%), compound remaining after 60 minutes [2] [%]",IC50 [3] [nM],SMILES
23.6,30.21,–,"CC(=O)Nc1ccc(COc2ccc(-c3cccc4nc(NC(=O)C5CC5)nn34)cc2)cc1 [Compound 92, N-(5-(4-(4-acetamidobenzyloxy)phenyl)-[1,2,4]triazolo[1,5-a]pyridin-2-yl)cyclopropanecarboxamide]"
72.41,11.65,1 to 100,"O=C(Nc1nc2cccc(-c3ccc(OCc4cccnc4)cc3)n2n1)C1CC1 [Compound 36, N-(5-(4-(pyridin-3-ylmethoxy)phenyl)-[1,2,4]triazolo[1,5-a]pyridin-2-yl)cyclopropanecarboxamide]"
94,70,1 to 100,"O=C(Nc1nc2cccc(-c3ccc(OCc4ccccc4)cc3)n2n1)C1CC1 [Compound 12, N-(5-(4-(benzyloxy)phenyl)-[1,2,4]triazolo[1,5-a]pyridin-2-yl)cyclopropanecarboxamide]"
